# Assay results published in US20250084041A1, “ANTIMICROBIAL COMPOUNDS AND METHODS” (Curza Global, LLC, priority 2021, published 2025).
# Where a name gives a salt, the structure may show the parent alone. Read-outs that look alike come from different tables or passages of the source.
# Columns and labels:
# P. aeruginosa (Pa) = experiment: Broth microdilution MIC, P. aeruginosa; assay type: cell-based; details: for MIC: Pseudomonas aeruginosa, read-out: Pa + bicarb 25 (MIC)
# Summary of the method: (§1)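 MIC values come from a slightly modified CLSI broth microdilution, with eight two-fold compound dilutions tested in triplicate and 5×10^4 CFU/well. Growth medium was cation-adjusted Mueller-Hinton broth, alone or with 25 mM sodium bicarbonate or 0-50% heat-inactivated human serum.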
# E. faecalis (Ef) = experiment: Broth microdilution MIC, E. faecalis; assay type: cell-based; details: for MIC: Enterococcus faecalis, read-out: Ef + bicarb 25 (MIC)
# Summary of the method: as §1
# E. coli (Ec) = experiment: Broth microdilution MIC, E. coli; assay type: cell-based; details: for MIC: Escherichia coli, read-out: E. coli + bicarb 25 (MIC)
# Summary of the method: as §1
# E. coli S30 extract = experiment: E. coli S30 extract: inhibition of bacterial protein synthesis (luciferase); assay type: biochemical; details: 37° C. 1 hour
# Summary of the method: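 Coupled transcription-translation in E. coli S30 extract, programmed with pBESTluc plasmid, was run with 8-point 2-fold compound dilutions for 1 h at 37 °C. After a cold stop, luciferase luminescence was read and percent inhibition calculated against no-inhibitor controls.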
# S. aureus (Sa) = experiment: Broth microdilution MIC, S. aureus; assay type: cell-based; details: for MIC: Staphylococcus aureus, read-out: Sa + bicarb 25 (MIC)
# Summary of the method: as §1
# [1] = target: Rabbit Reticulocyte Lysate; experiment: Rabbit Reticulocyte Lysate: inhibition of eukaryotic protein synthesis (luciferase); assay type: biochemical; details: 30° C. 90 minutes, read-out: Retic. IC50
# Summary of the method: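 Nuclease-treated rabbit reticulocyte lysate translating luciferase control RNA with complete amino acids; compounds in 8-point 2-fold dilutions, 90 min at 30° C. Luminescence read after luciferase reagent; % inhibition versus water (no-inhibitor) control, no-RNA wells as background.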
# A. baumannii (Ab) = experiment: Broth microdilution MIC, A. baumannii; assay type: cell-based; details: for MIC: Acinetobacter baumannii, read-out: Ab + bicarb 25 (MIC)
# Summary of the method: as §1
# [2] = P. aeruginosa, CAMHB supplemented with sodium bicarbonate 25 mM
# [3] = E. coli, CAMHB supplemented with sodium bicarbonate 25 mM
# [4] = S. aureus, CAMHB supplemented with sodium bicarbonate 25 mM
# [5] = E. faecalis, CAMHB supplemented with sodium bicarbonate 25 mM
# [6] = A. baumannii, CAMHB supplemented with sodium bicarbonate 25 mM
SMILES,Pa + bicarb 25 (MIC) (P. aeruginosa (Pa); [2]),"Ef + bicarb 25 (MIC) (E. faecalis (Ef); E. faecalis, CAMHB supplemented with sodium bicarbonate 25 mM, hydrochloride salt)",E. coli + bicarb 25 (MIC) (E. coli (Ec); [3]),IC50 (E. coli S30 extract; hydrochloride salt),Sa + bicarb 25 (MIC) (S. aureus (Sa); [4]),IC50 [1],"Ab + bicarb 25 (MIC) (A. baumannii (Ab); A. baumannii, CAMHB supplemented with sodium bicarbonate 25 mM, hydrochloride salt)",MIC (P. aeruginosa (Pa); [2]),MIC (E. faecalis (Ef); [5]),MIC (E. coli (Ec); [3]),IC50 (E. coli S30 extract),MIC (S. aureus (Sa); [4]),MIC (A. baumannii (Ab); [6]),MIC (P. aeruginosa (Pa)),MIC (E. faecalis (Ef)),MIC (E. coli (Ec)),MIC (S. aureus (Sa)),MIC (A. baumannii (Ab))
"CC(C)(N)C(=O)N1CCN(C(=O)Nc2ccn(C3CCC(CN4C[C@@H]5[C@@H](N)[C@@H]5C4)CC3)c(=O)n2)CC1 (stereo partly drawn) [Compound 7, 4-(2-Amino-2-methylpropanoyl)-N-(1-(trans-4-((exo-6-amino-3-azabicyclo[3.1.0]hexan-3-yl)methyl)cyclohexyl)-2-oxo-1,2-dihydropyrimidin-4-yl)piperazine-1-carboxamide hydrochloride salt]",+ (An MIC value (μg/mL) that is 32 μg/mL or greater),+++ (An MIC value (μg/mL) that is less than 8 μg/mL),+++ (An MIC value (μg/mL) that is less than 8 μg/mL),< 500 nM,+++ (An MIC value (μg/mL) that is less than 8 μg/mL),≥ 1000 nM,++ (An MIC value (μg/mL) that is 8 μg/mL or greater and less than 32 μg/mL),–,–,–,–,–,–,–,–,–,–,–
"CC(C)(N)C(=O)N1CCN(C(=O)Nc2ccn(C3CCC(CN4C[C@@H]5[C@@H](CN)[C@@H]5C4)CC3)c(=O)n2)CC1 (stereo partly drawn) [Compound 8, 4-(2-Amino-2-methylpropanoyl)-N-(1-(4-((exo-6-(aminomethyl)-3-azabicyclo[3.1.0]hexan-3-yl)methyl)cyclohexyl)-2-oxo-1,2-dihydropyrimidin-4-yl)piperazine-1-carboxamide hydrochloride salt]",–,–,–,–,–,≥ 1000 nM,–,8 to 32 µg/mL,< 8 µg/mL,< 8 µg/mL,< 500 nM,< 8 µg/mL,> 32 µg/mL,–,–,–,–,–
"CC(C)(N)C(=O)N1CCN(C(=O)Nc2ccn(C3CCC(CN4CCCC(N)CC4)CC3)c(=O)n2)CC1 (centres unmarked) [Compound 9, 4-(2-Amino-2-methylpropanoyl)-N-(1-(4-((4-aminoazepan-1-yl)methyl)cyclohexyl)-2-oxo-1,2-dihydropyrimidin-4-yl)piperazine-1-carboxamide hydrochloride salt]",–,–,–,–,–,≥ 1000 nM,–,–,–,–,< 500 nM,–,–,> 32 µg/mL,< 8 µg/mL,< 8 µg/mL,< 8 µg/mL,8 to 32 µg/mL
"CC(C)(N)C(=O)N1CCN(C(=O)Nc2ccn(C3=CCC(CN4C[C@@H]5[C@@H](N)[C@@H]5C4)CC3)c(=O)n2)CC1 (stereo partly drawn) [Compound 12, 4-(2-Amino-2-methylpropanoyl)-N-(1-(4-(((1R,5S,6s)-6-amino-3-azabicyclo[3.1.0]hexan-3-yl)methyl)cyclohex-1-en-1-yl)-2-oxo-1,2-dihydropyrimidin-4-yl)piperazine-1-carboxamide hydrochloride salt]",–,–,–,–,–,≥ 1000 nM,–,> 32 µg/mL,< 8 µg/mL,< 8 µg/mL,< 500 nM,< 8 µg/mL,8 to 32 µg/mL,–,–,–,–,–
"CC(C)(N)C(=O)N1CCN(C(=O)Nc2ccn(C3CCC(CN[C@H]4CC[C@H](N)C4)CC3)c(=O)n2)CC1 (stereo partly drawn) [Compound 13, 4-(2-Amino-2-methylpropanoyl)-N-(1-(4-((((1S,3S)-3-aminocyclopentyl)amino)methyl)cyclohexyl)-2-oxo-1,2-dihydropyrimidin-4-yl)piperazine-1-carboxamide hydrochloride salt]",–,–,–,–,–,≥ 1000 nM,–,–,–,–,< 500 nM,–,–,> 32 µg/mL,8 to 32 µg/mL,< 8 µg/mL,< 8 µg/mL,> 32 µg/mL
"CC(C)(N)C(=O)N1CCN(C(=O)Nc2ccn(C3CCC(CN4CC(CN)C4)CC3)c(=O)n2)CC1 (centres unmarked) [Compound 14, 4-(2-Amino-2-methylpropanoyl)-N-(1-(4-((3-(aminomethyl)azetidin-1-yl)methyl)cyclohexyl)-2-oxo-1,2-dihydropyrimidin-4-yl)piperazine-1-carboxamide hydrochloride salt]",–,–,–,–,–,≥ 1000 nM,–,–,–,–,< 500 nM,–,–,> 32 µg/mL,8 to 32 µg/mL,< 8 µg/mL,< 8 µg/mL,> 32 µg/mL
"CC(C)(N)C(=O)N1CCN(C(=O)Nc2ccn(C3CCC(CN4CCC5(CC4)CC(N)C5)CC3)c(=O)n2)CC1 (centres unmarked) [Compound 16, 4-(2-Amino-2-methylpropanoyl)-N-(1-(4-((2-amino-7-azaspiro[3.5]nonan-7-yl)methyl)cyclohexyl)-2-oxo-1,2-dihydropyrimidin-4-yl)piperazine-1-carboxamide hydrochloride salt]",–,–,–,–,–,≥ 1000 nM,–,–,–,–,< 500 nM,–,–,8 to 32 µg/mL,< 8 µg/mL,< 8 µg/mL,< 8 µg/mL,< 8 µg/mL
"CC(C)(N)C(=O)N1CCN(C(=O)Nc2ccn([C@H]3CC[C@H](CN[C@H]4CC[C@@H](N)CC4)CC3)c(=O)n2)CC1 [Compound 17, 4-(2-Amino-2-methylpropanoyl)-N-(1-(trans-4-(((cis-4-aminocyclohexyl)amino)methyl)cyclohexyl)-2-oxo-1,2-dihydropyrimidin-4-yl)piperazine-1-carboxamide hydrochloride salt]",–,–,–,–,–,≥ 1000 nM,–,–,–,–,< 500 nM,–,–,> 32 µg/mL,< 8 µg/mL,< 8 µg/mL,< 8 µg/mL,> 32 µg/mL
"CC(C)(N)C(=O)N1CCN(C(=O)Nc2ccn([C@H]3CC[C@H](CN[C@H]4CC[C@H](N)CC4)CC3)c(=O)n2)CC1 [Compound 18, 4-(2-Amino-2-methylpropanoyl)-N-(1-(trans-4-(((trans-4-aminocyclohexyl)amino)methyl)cyclohexyl)-2-oxo-1,2-dihydropyrimidin-4-yl)piperazine-1-carboxamide hydrochloride salt]",–,–,–,–,–,≥ 1000 nM,–,–,–,–,< 500 nM,–,–,> 32 µg/mL,8 to 32 µg/mL,< 8 µg/mL,< 8 µg/mL,> 32 µg/mL
"CN(C[C@H]1CC[C@H](n2ccc(NC(=O)N3CCN(C(=O)C(C)(C)N)CC3)nc2=O)CC1)[C@H]1CC[C@H](N)CC1 [Compound 19, 4-(2-Amino-2-methylpropanoyl)-N-(1-(trans-4-(((trans-4-aminocyclohexyl)(methyl)amino)methyl)cyclohexyl)-2-oxo-1,2-dihydropyrimidin-4-yl)piperazine-1-carboxamide hydrochloride salt]",–,–,–,–,–,≥ 1000 nM,–,–,–,–,< 500 nM,–,–,> 32 µg/mL,< 8 µg/mL,< 8 µg/mL,< 8 µg/mL,8 to 32 µg/mL
"CC(C)(N)C(=O)N1CCN(C(=O)Nc2ccn([C@H]3CC[C@H](CN4CCC5(CC4)CC(N)C5)CC3)c(=O)n2)CC1 [Compound 20, 4-(2-Amino-2-methylpropanoyl)-N-(1-(trans-4-((2-amino-7-azaspiro[3.5]nonan-7-yl)methyl)cyclohexyl)-2-oxo-1,2-dihydropyrimidin-4-yl)piperazine-1-carboxamide hydrochloride salt]",–,–,–,–,–,≥ 1000 nM,–,–,–,–,< 500 nM,–,–,8 to 32 µg/mL,< 8 µg/mL,< 8 µg/mL,< 8 µg/mL,< 8 µg/mL
"CCN(C[C@H]1CC[C@H](n2ccc(NC(=O)N3CCN(C(=O)C(C)(C)N)CC3)nc2=O)CC1)[C@H]1CC[C@H](N)CC1 [Compound 21, 4-(2-Amino-2-methylpropanoyl)-N-(1-(trans-4-(((trans-4-aminocyclohexyl)(ethyl)amino)methyl)cyclohexyl)-2-oxo-1,2-dihydropyrimidin-4-yl)piperazine-1-carboxamide hydrochloride salt]",–,–,–,–,–,≥ 1000 nM,–,–,–,–,< 500 nM,–,–,8 to 32 µg/mL,< 8 µg/mL,< 8 µg/mL,< 8 µg/mL,8 to 32 µg/mL
"CC(C)(N)C(=O)N1CCN(C(=O)Nc2ccn(C3=CCC(CN4CCC5(CC4)CC(N)C5)CC3)c(=O)n2)CC1 (centres unmarked) [Compound 25, 4-(2-Amino-2-methylpropanoyl)-N-(1-(4-((2-amino-7-azaspiro[3.5]nonan-7-yl)methyl)cyclohexan-1-en-1-yl)-2-oxo-1,2-dihydropyrimidin-4-yl)piperazine-1-carboxamide hydrochloride salt]",–,–,–,–,–,≥ 1000 nM,–,–,–,–,< 500 nM,–,–,8 to 32 µg/mL,< 8 µg/mL,< 8 µg/mL,< 8 µg/mL,< 8 µg/mL
"CC(C)(N)C(=O)N1CCN(C(=O)Nc2ccn(C3=CCC(CN4CCC(CCN)CC4)CC3)c(=O)n2)CC1 (centres unmarked) [Compound 26, 4-(2-Amino-2-methylpropanoyl)-N-(1-(4-((4-(2-aminoethyl)piperidin-1-yl)methyl)cyclohex-1-en-1-yl)-2-oxo-1,2-dihydropyrimidin-4-yl)piperazine-1-carboxamide hydrochloride salt]",–,–,–,–,–,≥ 1000 nM,–,–,–,–,< 500 nM,–,–,> 32 µg/mL,< 8 µg/mL,< 8 µg/mL,< 8 µg/mL,> 32 µg/mL
